Laboratory results taken from patent US20100081679A1, “DIAMINOPYRIMIDINES AS FUNGICIDES” (Bayer CropScience AG, priority 2007, published 2010).
Marks after values point to notes of the source that are not given here.

Experiment: logP determination via retention times, calibrated with unbranched alkan-2-ones
Assay type: physicochemical
Details: HPLC on reversed-phase C 18, EEC Directive 79/831 Annex V.A8; method *: 40° C., 0.1% aqueous formic acid and acetonitrile, linear gradient 10% to 95% acetonitrile

logP | Compound
1.45* | Clc1cnc(Nc2cccc(N3CCCCC3)c2)nc1NC1CC1 [compound 535]
2.67* | CC(=O)c1cc(Nc2ncc(Br)c(NCC3CC3)n2)ccc1Cl [compound 487]
1.9* | CCOC(=O)Nc1cccc(Nc2ncc(Cl)c(NCC3CC3)n2)c1 [compound 513]
2.51* | CN(C)S(=O)(=O)Oc1cccc(Nc2ncc(Br)c(NCC3CC3)n2)c1 [compound 485]
0.93* | Brc1cnc(Nc2ccc(-n3ccnc3)cc2)nc1NC1CC1 [compound 501]
1.96* | Fc1ccc(Nc2ncc(Br)c(NC3CC3)n2)cc1 [compound 499]

The remaining lines, values behind:

Compound | logP
O=C1CCc2cc(Nc3ncc(Cl)c(NCC4CC4)n3)ccc2N1 [compound 517] | 1.19*
FC(F)(F)Oc1ccc(Nc2ncc(Br)c(NCC3CC3)n2)cc1 [compound 476] | 3.1*
CNC(=O)Oc1cccc(Nc2ncc(Cl)c(NCC3CC3)n2)c1 [compound 514] | 1.61*
Oc1ccc(Nc2ncc(Br)c(NCC3CC3)n2)c(F)c1 [compound 478] | 1.51*

Same assay, conditions: HPLC on reversed-phase C 18, method **: 43° C.; 0.1% aqueous phosphoric acid and acetonitrile; linear gradient 10% to 95% acetonitrile

logP | Compound
1.99** | COC(=O)Nc1ccc(Nc2ncc(Cl)c(N(C)CC3CC3)n2)cc1 [compound 970]

Same assay, conditions: HPLC on reversed-phase C18, method **: 43° C.; mobile phase 0.1% aqueous phosphoric acid and acetonitrile; linear gradient 10% to 95% acetonitrile

logP | Compound
0.48** | Nc1ccc(Nc2ncc(Cl)c(NC3CC3)n2)cc1 [compound 272]

Same assay, conditions: HPLC on reversed-phase C18, method *: 40° C., 0.1% aqueous formic acid and acetonitrile, linear gradient 10% to 95% acetonitrile

logP | Compound
2.56* | N#CCc1cccc(Nc2ncc(C(F)(F)F)c(NC3CC3)n2)c1 [compound 976]
1.66* | Brc1cnc(Nc2ccc3c(c2)OCO3)nc1NC1CC1 [compound 752]
1.93* | O=C(Nc1ccccc1)Nc1cccc(Nc2ncc(Cl)c(NC3CC3)n2)c1 [compound 717]
1.63* | CCOC(=O)Nc1ccc(Nc2ncc(Cl)c(NC3CC3)n2)cc1 [compound 977]
3.69* | CCC(C)Sc1cccc(Nc2ncc(Cl)c(NC3CC3)n2)c1 (stereo not shown) [compound 665]
3.38* | CC(C)Sc1cccc(Nc2ncc(Br)c(NC3CC3)n2)c1 [compound 707]
1.73* | C=CCNC(=O)c1ccc(Nc2ncc(Br)c(NC3CC3)n2)cc1 [compound 755]
2.99* | FC(F)Sc1ccc(Nc2ncc(Br)c(NC3CC3)n2)cc1 [Example 104]
2.78* | COCc1cccc(Nc2ncc(C(F)(F)F)c(NC3CC3)n2)c1 [compound 721]
2.43* | N#Cc1ccc(Nc2ncc(Br)c(NC3CC3)n2)cc1 [compound 744]
1.99* | Brc1cnc(Nc2ccc(-c3cscn3)cc2)nc1NC1CC1 [compound 747]

The remaining lines, values behind:

Compound | logP
O=C(N(c1ccc(Nc2ncc(Cl)c(NC3CC3)n2)cc1)C1CC1)C(F)(F)F [compound 120] | 2.54*
COCc1cccc(Nc2ncc(Cl)c(NCC3CC3)n2)c1 [compound 709] | 1.82*
O=C1OCCN1c1ccc(Nc2ncc(Cl)c(NCC3CC3)n2)cc1 [compound 160] | 1.39*
Oc1ccc(Nc2ncc(Cl)c(NCC3CC3)n2)c(F)c1 [compound 694] | 1.46*
COc1cc(Nc2ncc(C(F)(F)F)c(NC3CC3)n2)ccc1Cl [compound 700] | 3.59*
CCC(=O)c1ccc(Nc2ncc(Cl)c(NCC3CC3)n2)cc1 [compound 677] | 2.55*
CC(C)c1ccc(Nc2ncc(Cl)c(NC3CC3)n2)cc1 [compound 729] | 2.54*
CCCc1ccccc1Nc1ncc(Cl)c(NC2CC2)n1 [compound 912] | 2.01*
Clc1cnc(Nc2cccc(Cl)c2Cl)nc1NC1CC1 [compound 937] | 3.76*
CCC(C)c1ccc(Nc2ncc(Cl)c(NC3CC3)n2)cc1 (racemic) [compound 954] | 2.77*

Same assay, conditions: HPLC on reversed-phase C18, method *: 40° C.; mobile phase 0.1% aqueous formic acid and acetonitrile; linear gradient 10% to 95% acetonitrile

logP | Compound
0.45*; | Nc1ccc(Nc2ncc(Cl)c(NC3CC3)n2)cc1 [compound 272]
1.85* | CC(=O)c1cccc(Nc2ncc(Br)c(NC3CC3)n2)c1 [compound 358]
1.31* | CC(=O)Nc1ccc(Nc2ncc(Br)c(NC3CC3)n2)cc1 [compound 348]
2.66* | FC(F)Oc1cccc(Nc2ncc(Br)c(NC3CC3)n2)c1 [compound 332]
1.54* | CC(=O)N(C)c1ccc(Nc2ncc(Br)c(NC3CC3)n2)cc1 [compound 349]

The remaining lines, values behind:

Compound | logP
FC(F)(F)c1ccccc1Nc1ncc(Cl)c(NC2CC2)n1 [compound 276] | 2.58*
Oc1ccc(Nc2ncc(Cl)c(NC3CC3)n2)c(F)c1 [compound 294] | 1.26*

Same assay, conditions: HPLC on reversed-phase C18 column (EEC Directive 79/831 Annex V.A8); method *: 40° C.; 0.1% aqueous formic acid and acetonitrile; linear gradient 10% to 95% acetonitrile

logP | Compound
2.45* | CC(C)Oc1cccc(Nc2ncc(Cl)c(NC3CC3)n2)c1 [compound 195]
3.55* | FC(F)(F)Nc1cccc(Nc2ncc(Cl)c(NC3CC3)n2)c1 [compound 184]
3.18* | CC(C)Sc1cccc(Nc2ncc(Cl)c(NC3CC3)n2)c1 [compound 264]
2.69* | COC(c1cccc(Nc2ncc(Cl)c(NC3CC3)n2)c1)C(F)(F)F (stereo not shown) [compound 270]

The next lines start with the compound.

Compound | logP
CC(C)(C)C(=O)Cc1ccc(Nc2ncc(C(F)(F)F)c(NCC3CC3)n2)cc1 [compound 210] | 3.41*
O=S(=O)(c1cccc(Nc2ncc(Cl)c(NC3CC3)n2)c1)N1CCCCC1 [compound 246] | 2.8*

Same assay, conditions: HPLC reversed-phase C 18, EEC Directive 79/831 Annex V.A8; method **: 43° C., 0.1% aqueous phosphoric acid and acetonitrile, linear gradient 10% to 95% acetonitrile

logP | Compound
2.18** | O=C1OCCN1c1cccc(Nc2ncc(C(F)(F)F)c(NC3CC3)n2)c1 [compound 834]

Same assay, conditions: HPLC reversed-phase C 18, EEC Directive 79/831 Annex V.A8; method *: 40° C., 0.1% aqueous formic acid and acetonitrile, linear gradient 10% to 95% acetonitrile

logP | Compound
2.08* | COC(C)c1cccc(Nc2ncc(Br)c(NC3CC3)n2)c1 (stereo not shown) [compound 805]
1.96* | COC(C)c1cccc(Nc2ncc(Cl)c(NC3CC3)n2)c1 (stereo not shown) [compound 806]
2.2* | CO/N=C(\C)Cc1cccc(Nc2ncc(Cl)c(NC3CC3)n2)c1 [compound 854]

Second part, the compound before the results:

Compound | logP
N#CCc1cccc(Nc2ncc(Cl)c(NCC3CC3)n2)c1 [compound 821] | 1.81*
CCc1cccc(Nc2ncc(Cl)c(NCC3CC3)n2)c1 [compound 776] | 2.37*
COc1cc(CC#N)ccc1Nc1ncc(Cl)c(NC2CC2)n1 [compound 817] | 1.82*
O=C1COCCN1c1cccc(Nc2ncc(Cl)c(NCC3CC3)n2)c1 [compound 786] | 1.31*
O=C1OCCN1c1cccc(Nc2ncc(C(F)(F)F)c(NC3CC3)n2)c1 [compound 834] | 2.18*;

Same assay, conditions: method **: HPLC reversed-phase C 18, 43° C., 0.1% aqueous phosphoric acid and acetonitrile, linear gradient 10% to 95% acetonitrile

logP | Compound
2.26** | CN(C)S(=O)(=O)c1ccc(Nc2ncc(Cl)c(NC3CC3)n2)cc1 [Example 6]
1.52** | NS(=O)(=O)c1ccc(Nc2ncc(Cl)c(NCC3CC3)n2)cc1 [compound 8]
2.18** | CN(C)S(=O)(=O)c1cccc(Nc2ncc(Cl)c(NCC3CC3)n2)c1 [compound 49]
0.95** | NS(=O)(=O)c1ccc(Nc2ncc(F)c(NC3CC3)n2)cc1 [compound 46]

Same assay, conditions: method **: HPLC, reversed-phase C 18, 43° C., mobile phase 0.1% aqueous phosphoric acid and acetonitrile, linear gradient from 10% to 95% acetonitrile

logP | Compound
3.7** | FS(F)(F)(F)(F)c1cccc(Nc2ncc(Cl)c(NC3CC3)n2)c1 [compound 1052]

Same assay, conditions: method *: HPLC reversed-phase C18, 40° C., 0.1% aqueous formic acid and acetonitrile, linear gradient 10% to 95% acetonitrile

logP | Compound
2.91* | COC(=O)c1ccc(Nc2ncc(Cl)c(NC3CC3)n2)cc1Cl [compound 378]
1.47* | Clc1cnc(Nc2ccc3[nH]ccc3c2)nc1NC1CC1 [Example 71]
2.72* | CCSc1cccc(Nc2ncc(Cl)c(NC3CC3)n2)c1 [compound 436]
1.54* | CCC(=O)Nc1cccc(Nc2ncc(Br)c(NC3CC3)n2)c1 [compound 381]

Continued, compound first:

Compound | logP
CN(C)S(=O)(=O)c1ccc(Nc2ncc(Br)c(NCC3CC3)n2)cc1 [compound 449] | 2.51*
O=S(=O)(c1cccc(Nc2ncc(Br)c(NCC3CC3)n2)c1)N1CCCCC1 [compound 454] | 2.29*
CCCCSc1cccc(Nc2ncc(Cl)c(NC3CC3)n2)c1.Cc1ccc(S(=O)(=O)O)cc1 [compound 443] | 3.79*
CC(C)(C)C(=O)Cc1ccc(Nc2ncc(Cl)c(NC3CC3)n2)cc1 [Example 59] | 2.3*

Same assay, conditions: method *: HPLC reversed-phase C 18, temperature 40° C.; mobile phase 0.1% aqueous formic acid and acetonitrile; linear gradient 10% to 95% acetonitrile

logP | Compound
2.92* | CSc1cccc(Nc2ncc(C#N)c(NC3CC3)n2)c1 [compound 609]
1.35* | CCNC(=O)c1cccc(Nc2ncc(Cl)c(NC3CC3)n2)c1 [compound 631]
2.63* | CC(C)c1cccc(Nc2ncc(Cl)c(NC3CC3)n2)c1 [compound 633]
3.36* | C#Cc1cccc(Nc2ncc(C(F)(F)F)c(NC3CC3)n2)c1 [compound 627]
1.23* | O=C1OCCN1c1ccc(Nc2ncc(F)c(NC3CC3)n2)cc1 [compound 592]

Same assay, conditions: method *: HPLC, reversed-phase C 18, 40° C., mobile phase 0.1% aqueous formic acid and acetonitrile, linear gradient from 10% to 95% acetonitrile

logP | Compound
2.62* | Fc1ccc(Nc2ncc(Cl)c(NC3CC3)n2)cc1OC(F)F [compound 1053]
1.8* | O=C(c1cccc(Nc2ncc(Cl)c(NC3CC3)n2)c1)N1CCSCC1 [compound 1067]

Same assay, conditions: pH 2.3; read-out: logP (pH2.3)

chromatographic logP | Compound
3.4 | FC(F)(F)c1cnc(Cl)nc1NCC1CC1 [2-chloro-N-(cyclopropylmethyl)-5-trifluoromethylpyrimidine-4-amine]
2.19 | Clc1ncc(I)c(NC2CC2)n1 [2-chloro-N-cyclopropyl-5-iodopyrimidine-4-amine]
1.28 | Cc1cnc(Cl)nc1NC1CC1 [2-chloro-N-cyclopropyl-5-methylpyrimidine-4-amine]
1.55 | O=C(O)c1ccc(Nc2ncc(Cl)c(NC3CC3)n2)cc1 [4-{[5-chloro-4-(cyclopropylamino)pyrimidin-2-yl]amino}benzoic acid]
